ChEMBL document CHEMBL1201862, “PubChem BioAssay data set” (2004)
Activity calls are given as the source filed them.

Tests used:
[1] = target: T1, Cysteine protease ATG4B (Homo sapiens, UniProt Q9Y4P1); type: functional;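 note: Fluorescence-based dose-response confirmation assay measuring inhibition of ATG4B activity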
T1 sequence (Q9Y4P1 whole entry): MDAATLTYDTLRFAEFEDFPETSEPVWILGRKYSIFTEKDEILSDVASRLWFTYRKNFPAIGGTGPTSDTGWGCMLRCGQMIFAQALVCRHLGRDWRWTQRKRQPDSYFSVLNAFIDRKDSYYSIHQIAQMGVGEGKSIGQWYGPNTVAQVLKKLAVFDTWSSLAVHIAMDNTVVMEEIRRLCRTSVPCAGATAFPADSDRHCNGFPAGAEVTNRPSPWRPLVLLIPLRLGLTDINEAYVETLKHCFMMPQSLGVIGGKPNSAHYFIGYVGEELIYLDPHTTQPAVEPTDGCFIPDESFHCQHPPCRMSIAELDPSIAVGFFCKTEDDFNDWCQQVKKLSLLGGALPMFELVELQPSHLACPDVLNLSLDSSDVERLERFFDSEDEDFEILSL

[2] = target: Phospholipase A2 (Homo sapiens, UniProt P04054); type: functional;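 note: confirmatory dose-response counterscreen on phospholipase A2, testing hits that came from an ultra-high-throughput screen for ATG4B inhibitors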
[3] = target: T2, Sentrin-specific protease 8 (Homo sapiens, UniProt Q96LD8); experiment: inhibition of human SENP8 cleavage activity – biochemical, luminescence, SAR follow-up (AID 504501); type: functional
T2 sequence (Q96LD8 whole entry): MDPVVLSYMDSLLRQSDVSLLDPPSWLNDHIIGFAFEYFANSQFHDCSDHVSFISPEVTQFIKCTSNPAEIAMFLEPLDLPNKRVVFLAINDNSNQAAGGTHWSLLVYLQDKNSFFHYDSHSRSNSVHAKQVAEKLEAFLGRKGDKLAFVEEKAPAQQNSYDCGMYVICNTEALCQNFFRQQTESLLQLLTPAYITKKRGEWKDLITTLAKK

[4] = target: T3, Caspase-3 (Homo sapiens, UniProt P42574); experiment: SAR Analysis of small molecule inhibitors of Sentrin-specific proteases (SENPs) using a Caspase-3 Selectivity assay. [Related pubchem assays (depositor defined):AID2540, AID2599, AID434973, AID489001]; type: functional
T3 sequence (P42574 whole entry): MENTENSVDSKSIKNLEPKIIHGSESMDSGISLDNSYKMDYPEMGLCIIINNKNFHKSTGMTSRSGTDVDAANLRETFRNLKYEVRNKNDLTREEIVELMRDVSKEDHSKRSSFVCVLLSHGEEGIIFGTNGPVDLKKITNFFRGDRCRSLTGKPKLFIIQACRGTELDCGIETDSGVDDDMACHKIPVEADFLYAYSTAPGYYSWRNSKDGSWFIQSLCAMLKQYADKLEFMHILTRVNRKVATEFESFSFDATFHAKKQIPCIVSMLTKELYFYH

[5] = target: T4, Sentrin-specific protease 6 (Homo sapiens, UniProt Q9GZR1); experiment: SAR Analysis of small molecule inhibitors of Sentrin-specific protease 6 (SENP6) using a Luminescent assay. [Related pubchem assays (depositor defined):AID2582, AID2599]; type: functional
T4 sequence (Q9GZR1 whole entry): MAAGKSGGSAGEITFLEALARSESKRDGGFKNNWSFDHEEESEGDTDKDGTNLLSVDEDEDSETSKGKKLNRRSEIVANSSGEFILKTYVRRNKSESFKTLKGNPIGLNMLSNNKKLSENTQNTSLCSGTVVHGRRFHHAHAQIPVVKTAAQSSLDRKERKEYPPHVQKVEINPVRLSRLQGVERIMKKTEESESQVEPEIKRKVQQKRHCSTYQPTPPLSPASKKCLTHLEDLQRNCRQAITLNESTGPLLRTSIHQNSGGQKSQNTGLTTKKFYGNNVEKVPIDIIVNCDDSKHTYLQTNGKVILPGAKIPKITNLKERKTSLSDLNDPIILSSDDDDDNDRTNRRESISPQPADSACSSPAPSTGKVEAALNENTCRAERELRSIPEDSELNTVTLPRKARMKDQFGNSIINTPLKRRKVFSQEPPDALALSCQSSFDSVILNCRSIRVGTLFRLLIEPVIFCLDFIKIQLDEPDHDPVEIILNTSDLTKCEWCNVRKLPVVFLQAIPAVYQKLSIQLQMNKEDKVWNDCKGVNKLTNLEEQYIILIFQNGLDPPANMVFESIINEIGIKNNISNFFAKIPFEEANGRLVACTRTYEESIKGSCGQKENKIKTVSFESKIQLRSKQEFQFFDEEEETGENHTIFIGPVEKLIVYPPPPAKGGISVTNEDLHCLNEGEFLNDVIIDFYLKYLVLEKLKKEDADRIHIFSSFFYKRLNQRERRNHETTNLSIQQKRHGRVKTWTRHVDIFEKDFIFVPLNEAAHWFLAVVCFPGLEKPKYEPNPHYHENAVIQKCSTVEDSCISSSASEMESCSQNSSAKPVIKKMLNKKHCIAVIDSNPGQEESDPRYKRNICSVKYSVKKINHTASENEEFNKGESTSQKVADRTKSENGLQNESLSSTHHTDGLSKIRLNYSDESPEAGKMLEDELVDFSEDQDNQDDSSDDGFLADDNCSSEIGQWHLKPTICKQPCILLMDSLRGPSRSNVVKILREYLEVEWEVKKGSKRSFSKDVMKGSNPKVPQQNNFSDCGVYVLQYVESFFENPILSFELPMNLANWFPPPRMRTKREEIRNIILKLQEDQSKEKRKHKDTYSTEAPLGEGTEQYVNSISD

[6] = target: T5, Sentrin-specific protease 7 (Homo sapiens, UniProt Q9BQF6); experiment: inhibition of human SENP7 cleavage activity – biochemical, luminescence, SAR follow-up (AID 504497); type: functional
T5 sequence (Q9BQF6 whole entry): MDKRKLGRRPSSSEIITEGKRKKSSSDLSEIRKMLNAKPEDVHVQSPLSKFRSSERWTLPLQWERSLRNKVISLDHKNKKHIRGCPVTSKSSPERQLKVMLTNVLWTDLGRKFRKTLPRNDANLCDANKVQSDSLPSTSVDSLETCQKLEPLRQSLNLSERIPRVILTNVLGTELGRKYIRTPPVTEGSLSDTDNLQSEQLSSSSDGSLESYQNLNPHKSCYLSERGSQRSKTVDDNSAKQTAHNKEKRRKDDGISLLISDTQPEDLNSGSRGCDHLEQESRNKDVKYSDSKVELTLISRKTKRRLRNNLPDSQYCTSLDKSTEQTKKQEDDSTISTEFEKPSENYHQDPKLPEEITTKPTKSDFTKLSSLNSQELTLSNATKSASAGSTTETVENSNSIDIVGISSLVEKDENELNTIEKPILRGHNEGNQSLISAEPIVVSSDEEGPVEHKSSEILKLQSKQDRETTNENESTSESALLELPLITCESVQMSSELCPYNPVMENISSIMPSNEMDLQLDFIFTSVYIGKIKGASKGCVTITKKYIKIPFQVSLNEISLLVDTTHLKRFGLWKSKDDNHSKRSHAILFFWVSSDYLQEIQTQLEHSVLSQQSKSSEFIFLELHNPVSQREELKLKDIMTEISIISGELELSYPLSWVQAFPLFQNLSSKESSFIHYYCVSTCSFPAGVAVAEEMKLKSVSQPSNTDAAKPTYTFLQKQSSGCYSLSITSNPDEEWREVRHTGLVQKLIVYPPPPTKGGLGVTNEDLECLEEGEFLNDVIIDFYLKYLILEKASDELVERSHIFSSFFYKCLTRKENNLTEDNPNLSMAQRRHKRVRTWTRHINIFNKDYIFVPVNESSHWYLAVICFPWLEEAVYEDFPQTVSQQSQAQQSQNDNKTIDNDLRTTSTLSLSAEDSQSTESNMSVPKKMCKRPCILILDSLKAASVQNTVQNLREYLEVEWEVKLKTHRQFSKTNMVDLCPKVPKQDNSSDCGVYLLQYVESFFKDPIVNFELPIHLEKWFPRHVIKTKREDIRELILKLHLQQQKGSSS

[7] = system: CHO-K1; experiment: (§1) Counterscreen for antagonists of the orexin 1 receptor (OX1R; HCRTR1): Homogeneous time resolved fluorescence (HTRF)-based cell-based dose response assay to identify antagonists of the parental CHO-K1 cell line. [Related pubchem assays (depositor defined):AID434989, AID435008, AID463079, AID485270, AID492963, AID492964, AID492965, AID493232, AID504699, AID504701]; type: functional; details: Cricetulus griseus
[8] = as §1, with “Fluorescence-based” for “Homogeneous time resolved fluorescence (HTRF)-based”, “cell-based high throughput” for “cell-based”, “CHO” for “CHO-K1”; type: functional
[9] = target: T6, Orexin/Hypocretin receptor type 1 (Homo sapiens, UniProt O43613); experiment: Homogeneous Time Resolved Fluorescence (HTRF)-based cell-based high throughput dose response assay for antagonists of the orexin 1 receptor (OX1R; HCRTR1). [Related pubchem assays (depositor defined):AID434989, AID435008, AID463079, AID485270, AID492963, AID492964, AID492965, AID493232, AID504717, AID504718]; type: functional
T6 sequence (O43613 whole entry): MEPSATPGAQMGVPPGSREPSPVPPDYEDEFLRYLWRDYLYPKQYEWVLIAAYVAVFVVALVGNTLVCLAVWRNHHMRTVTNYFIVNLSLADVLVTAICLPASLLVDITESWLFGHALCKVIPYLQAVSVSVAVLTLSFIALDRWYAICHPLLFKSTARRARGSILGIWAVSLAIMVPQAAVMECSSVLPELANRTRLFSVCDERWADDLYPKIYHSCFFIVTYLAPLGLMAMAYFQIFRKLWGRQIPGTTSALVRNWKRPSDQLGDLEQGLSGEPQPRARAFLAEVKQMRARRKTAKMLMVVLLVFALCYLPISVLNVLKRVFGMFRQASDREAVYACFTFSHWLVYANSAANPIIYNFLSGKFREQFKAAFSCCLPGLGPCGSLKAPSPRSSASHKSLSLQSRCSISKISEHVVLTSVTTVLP

[10] = target: T6, Orexin/Hypocretin receptor type 1; experiment: Fluorescence-based cell-based high throughput dose response assay for antagonists of the orexin 1 receptor (OX1R; HCRTR1). [Related pubchem assays (depositor defined):AID434989, AID435008, AID463079, AID485270, AID492963, AID492964, AID492965, AID493232, AID504717, AID504718]; type: functional
[11] = target: T7, Orexin receptor type 2 (Homo sapiens, UniProt O43614); experiment: Counterscreen assay for antagonists of the orexin 1 receptor (OX1R; HCRTR1): Fluorescence-based cell-based dose response assay for antagonists of the orexin 2 receptor (OX2R; HCRTR2), run by assay provider.; type: functional
T7 sequence (O43614 whole entry): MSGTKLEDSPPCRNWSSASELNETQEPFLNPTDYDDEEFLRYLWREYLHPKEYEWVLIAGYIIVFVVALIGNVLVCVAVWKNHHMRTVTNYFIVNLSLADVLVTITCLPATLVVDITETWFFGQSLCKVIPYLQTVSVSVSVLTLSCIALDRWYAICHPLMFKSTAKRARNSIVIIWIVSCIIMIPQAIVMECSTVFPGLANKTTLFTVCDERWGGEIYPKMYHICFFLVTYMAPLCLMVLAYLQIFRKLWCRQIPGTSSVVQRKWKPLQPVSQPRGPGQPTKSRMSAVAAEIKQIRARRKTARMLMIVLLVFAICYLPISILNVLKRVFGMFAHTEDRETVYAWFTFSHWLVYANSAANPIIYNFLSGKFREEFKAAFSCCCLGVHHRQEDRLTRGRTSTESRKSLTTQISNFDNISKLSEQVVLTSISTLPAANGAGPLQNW

[12] = target: T7, Orexin receptor type 2; experiment: Counterscreen assay for antagonists of the orexin 1 receptor (OX1R; HCRTR1): Homogeneous Time Resolved Fluorescence (HTRF)-based cell-based dose response assay for antagonists of the orexin 2 receptor (OX2R; HCRTR2), run by assay provider.; type: functional
[13] = luciferase reporter signal suppression in cells – H4 neuroglioma cells, luminescence, dose response (AID 1990); type: functional, cell-based
[14] = target: Peroxisome proliferator-activated receptor gamma/Nuclear receptor coactivator 1 (Homo sapiens, UniProt P37231); experiment: (§2) TR-FRET dose response biochemical High Throughput Screening assay for agonists of the steroid receptor coactivator 1 (SRC-1) recruitment by the peroxisome proliferator-activated receptor gamma (PPAR gamma): non-selective agonists. [Related pubchem assays (depositor defined):AID1300, AID1808, AID504735, AID631]; type: protein assay
[15] = Luminescence Cell-Based Dose Response HTS to Identify Inhibitors of 5'UTR Stem-Loop Driven Prion Protein mRNA Translation in H4 Neuroglioblastoma Cells. [Related pubchem assays: 1827 (Project Summary), 1813 (Primary HTS)]; type: functional
[16] = target: Peroxisome proliferator-activated receptor gamma/Nuclear receptor coactivator 3 (Homo sapiens, UniProt P37231); experiment: as §2, with “3 (SRC-3)” for “1 (SRC-1)”, “assays: 1301 (Confirmation screen.), 1048 (Primary screen.)]” for “assays (depositor defined):AID1300, AID1808, AID504735, AID631]”; type: functional
[17] = alpha-synuclein stem-loop luciferase translation blockers – H4 neuroglioma cells, luminescence, confirmation (AID 1988); type: functional, cell-based
[18] = target: Peroxisome proliferator-activated receptor gamma/Nuclear receptor coactivator 2 (Homo sapiens, UniProt P37231); experiment: TR-FRET dose response biochemical High Throughput Screening assay for agonists of the steroid receptor coactivator 2 (SRC-2) recruitment by the peroxisome proliferator-activated receptor gamma (PPAR gamma): non-selective agonists. [Related pubchem assays: 1297, 1032 ]; type: functional
[19] = system: Vero; experiment: cells; type: functional, cell-based; details: Chlorocebus sabaeus

Chain of Peroxisome proliferator-activated receptor gamma/Nuclear receptor coactivator 2 (P37231 whole entry): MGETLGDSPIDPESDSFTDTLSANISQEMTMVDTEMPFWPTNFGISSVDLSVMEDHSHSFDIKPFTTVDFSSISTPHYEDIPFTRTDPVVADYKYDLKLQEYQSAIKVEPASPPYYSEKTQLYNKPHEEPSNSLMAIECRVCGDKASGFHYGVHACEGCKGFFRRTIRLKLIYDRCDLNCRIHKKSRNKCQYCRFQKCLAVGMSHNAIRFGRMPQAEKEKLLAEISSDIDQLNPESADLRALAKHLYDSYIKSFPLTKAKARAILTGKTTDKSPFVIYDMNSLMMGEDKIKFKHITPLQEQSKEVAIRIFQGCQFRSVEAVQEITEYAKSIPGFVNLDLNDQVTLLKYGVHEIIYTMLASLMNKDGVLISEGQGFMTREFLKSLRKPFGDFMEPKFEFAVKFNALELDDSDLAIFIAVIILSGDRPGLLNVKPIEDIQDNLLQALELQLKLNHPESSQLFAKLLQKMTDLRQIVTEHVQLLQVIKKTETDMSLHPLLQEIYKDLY
Chain of Peroxisome proliferator-activated receptor gamma/Nuclear receptor coactivator 2 (Q15596 whole entry, further chain): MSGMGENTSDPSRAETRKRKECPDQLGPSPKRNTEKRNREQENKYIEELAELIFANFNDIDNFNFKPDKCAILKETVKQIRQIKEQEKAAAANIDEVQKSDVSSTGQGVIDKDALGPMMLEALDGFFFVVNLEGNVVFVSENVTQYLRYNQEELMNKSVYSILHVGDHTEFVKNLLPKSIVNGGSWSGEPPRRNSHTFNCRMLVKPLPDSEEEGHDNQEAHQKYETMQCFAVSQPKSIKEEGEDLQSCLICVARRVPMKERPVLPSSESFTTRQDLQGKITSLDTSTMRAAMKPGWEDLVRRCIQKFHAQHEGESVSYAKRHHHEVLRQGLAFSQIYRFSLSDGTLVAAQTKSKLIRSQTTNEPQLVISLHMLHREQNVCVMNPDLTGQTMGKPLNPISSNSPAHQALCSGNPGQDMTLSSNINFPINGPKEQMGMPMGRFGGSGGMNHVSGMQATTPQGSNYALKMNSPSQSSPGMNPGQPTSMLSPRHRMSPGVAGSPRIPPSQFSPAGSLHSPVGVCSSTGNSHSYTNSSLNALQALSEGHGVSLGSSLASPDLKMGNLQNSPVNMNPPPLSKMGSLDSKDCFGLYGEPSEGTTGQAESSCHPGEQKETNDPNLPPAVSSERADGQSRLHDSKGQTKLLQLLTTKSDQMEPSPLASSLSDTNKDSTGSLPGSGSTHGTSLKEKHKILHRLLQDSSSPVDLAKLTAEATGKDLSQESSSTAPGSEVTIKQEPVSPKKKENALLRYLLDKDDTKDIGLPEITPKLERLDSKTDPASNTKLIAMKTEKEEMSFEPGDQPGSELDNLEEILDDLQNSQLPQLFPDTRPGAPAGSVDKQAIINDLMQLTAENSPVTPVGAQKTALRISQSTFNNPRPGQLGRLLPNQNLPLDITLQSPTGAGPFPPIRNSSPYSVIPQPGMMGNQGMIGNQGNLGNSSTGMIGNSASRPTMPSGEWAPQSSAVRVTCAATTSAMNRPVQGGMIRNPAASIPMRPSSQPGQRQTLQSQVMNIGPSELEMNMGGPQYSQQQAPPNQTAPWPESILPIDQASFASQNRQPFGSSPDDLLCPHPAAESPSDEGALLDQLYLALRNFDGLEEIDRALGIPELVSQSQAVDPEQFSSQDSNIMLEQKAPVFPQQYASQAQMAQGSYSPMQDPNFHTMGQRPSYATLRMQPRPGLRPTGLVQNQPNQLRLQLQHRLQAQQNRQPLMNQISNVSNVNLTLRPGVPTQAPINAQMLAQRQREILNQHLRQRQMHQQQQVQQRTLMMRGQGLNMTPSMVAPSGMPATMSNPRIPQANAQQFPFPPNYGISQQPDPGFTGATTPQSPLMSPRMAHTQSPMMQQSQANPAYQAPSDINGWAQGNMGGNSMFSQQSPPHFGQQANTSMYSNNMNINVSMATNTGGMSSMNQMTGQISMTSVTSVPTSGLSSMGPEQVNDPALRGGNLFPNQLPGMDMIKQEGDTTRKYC
Chain of Peroxisome proliferator-activated receptor gamma/Nuclear receptor coactivator 1 (P37231 whole entry): as the sequence (P37231 whole entry) above
Chain of Peroxisome proliferator-activated receptor gamma/Nuclear receptor coactivator 1 (Q15788 whole entry, further chain): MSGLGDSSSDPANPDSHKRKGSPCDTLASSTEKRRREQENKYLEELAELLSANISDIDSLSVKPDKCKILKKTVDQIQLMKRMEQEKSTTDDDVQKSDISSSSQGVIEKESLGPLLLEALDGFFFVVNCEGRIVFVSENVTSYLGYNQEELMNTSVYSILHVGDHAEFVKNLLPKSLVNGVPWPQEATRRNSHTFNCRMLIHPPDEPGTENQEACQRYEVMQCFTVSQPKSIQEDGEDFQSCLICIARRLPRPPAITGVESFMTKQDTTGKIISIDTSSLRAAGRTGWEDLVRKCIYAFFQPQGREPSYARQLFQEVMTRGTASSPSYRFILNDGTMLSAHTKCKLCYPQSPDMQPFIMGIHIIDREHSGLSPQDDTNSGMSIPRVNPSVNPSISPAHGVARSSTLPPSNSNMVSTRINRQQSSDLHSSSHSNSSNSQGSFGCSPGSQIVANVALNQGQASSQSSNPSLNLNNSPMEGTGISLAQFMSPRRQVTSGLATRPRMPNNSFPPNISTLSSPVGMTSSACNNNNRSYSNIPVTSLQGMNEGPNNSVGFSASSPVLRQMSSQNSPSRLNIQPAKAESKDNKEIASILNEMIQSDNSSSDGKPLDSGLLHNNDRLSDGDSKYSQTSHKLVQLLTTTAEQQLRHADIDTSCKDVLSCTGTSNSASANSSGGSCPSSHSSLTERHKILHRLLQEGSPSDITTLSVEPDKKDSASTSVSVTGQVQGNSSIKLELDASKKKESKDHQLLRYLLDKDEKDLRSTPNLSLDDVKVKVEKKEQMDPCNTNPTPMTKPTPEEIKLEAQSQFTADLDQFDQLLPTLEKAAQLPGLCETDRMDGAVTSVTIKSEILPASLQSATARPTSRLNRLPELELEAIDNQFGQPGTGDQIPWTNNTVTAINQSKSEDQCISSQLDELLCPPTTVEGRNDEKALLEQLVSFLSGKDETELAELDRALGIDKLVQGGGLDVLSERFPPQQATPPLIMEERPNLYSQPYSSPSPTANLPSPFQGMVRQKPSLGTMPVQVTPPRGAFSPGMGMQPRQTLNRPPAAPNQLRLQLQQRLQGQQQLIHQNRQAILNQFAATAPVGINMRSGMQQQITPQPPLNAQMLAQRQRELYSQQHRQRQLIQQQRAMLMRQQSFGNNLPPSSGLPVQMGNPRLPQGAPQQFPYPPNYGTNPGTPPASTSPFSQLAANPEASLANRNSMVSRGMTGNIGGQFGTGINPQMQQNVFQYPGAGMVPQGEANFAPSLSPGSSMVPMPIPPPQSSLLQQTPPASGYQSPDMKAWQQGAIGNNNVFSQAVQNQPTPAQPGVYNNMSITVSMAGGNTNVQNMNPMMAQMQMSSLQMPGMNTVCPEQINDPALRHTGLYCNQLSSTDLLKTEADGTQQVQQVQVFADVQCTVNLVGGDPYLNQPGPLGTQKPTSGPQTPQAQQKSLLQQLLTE
Chain of Phospholipase A2 (P04054 whole entry): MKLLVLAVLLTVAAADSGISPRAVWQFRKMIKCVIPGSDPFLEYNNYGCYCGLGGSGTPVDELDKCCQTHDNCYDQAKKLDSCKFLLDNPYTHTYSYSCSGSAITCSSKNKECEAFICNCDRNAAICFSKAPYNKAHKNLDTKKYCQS

CC1CCc2sc(C(=O)N3CCC(C(N)=O)CC3)cc2C1 (configuration not stated)
IC50 [1]: 13.2 µM (active)
IC50 [2]: 9.91 µM (active)

NC(=O)c1ccc(NC(=O)c2ccc3c(c2)OCO3)cc1
IC50 [3]: > 99 µM (inactive)
IC50 [4]: 7.08 µM (active)
IC50 [5]: > 99 µM (inactive)
IC50 [6]: 12.9 µM (active)

c1ccc(CN2CCN(C3CCCSc4ccccc43)CC2)cc1 (configuration not stated)
IC50 [7]: > 66.2 µM (inactive)
IC50 [8]: > 49.8 µM (inactive)
IC50 [9]: 1.59 µM (active)
IC50 [10]: 23.9 µM (inactive)
IC50 [11]: > 88.8 µM (inactive)
IC50 [12]: > 50 µM (inactive)

Brc1ccc(-c2nc(/C=C/c3ccccc3)no2)cc1
IC50 [3]: > 99 µM (inactive)
IC50 [4]: > 99 µM (inactive)
IC50 [5]: > 99 µM (inactive)
IC50 [6]: > 99 µM (inactive)

COC(=O)c1ccccc1NC1=C/C(=N/S(=O)(=O)c2cccs2)c2ccccc2C1=O
IC50 [3]: 4.02 µM (active)
IC50 [4]: 24.5 µM (active)
IC50 [5]: 2.15 µM (active)
IC50 [6]: 2.42 µM (active)

Cc1ccccc1-c1nnc(S)n1/N=C/c1ccc(-c2ccccc2Br)o1
EC50 [13]: 18.7 µM (active)
EC50 [14]: 29.4 µM (inactive)
EC50 [15]: 13.9 µM (active)
EC50 [16]: > 79.4 µM (not active)
EC50 [17]: 11.7 µM (active)
EC50 [18]: 28.6 µM (not active)
IC50 [19]: 2.91 µM (active)
